Data on 3 compounds can be found in paper PMC11583597, “Brain uptake pharmacokinetics of albiglutide, dulaglutide, tirzepatide, and DA5-CH in the search for new treatments of Alzheimer’s and Parkinson’s diseases” (Tissue Barriers, 2023).

For series [1] the following is noted: IRAs of the earlier study; cited from earlier work. The method, then: The rank order of IRAs showing significant brain uptake 1 h after iv injection with respect to AUCs is similar, but not identical to the rank order of their Ki’s (see Figures 5b and 3b). Less similar is the rank order of IRAs for uptake into brain parenchyma defined as the percent reaching the brain that was in its parenchyma vs. its capillaries. The rank order of parenchymal uptake was specifically DA4-JC (89.7%) = albiglutide (BAF) (89.4%) > DA3-CH (86%) > exenatide (84.2%) > Peptide 17 (73.2%) > lixisenatide (66.8%) > dulaglutide (BAF) (61.8%) > DA5-CH (57.6%) > Peptide 21 (43.6%) > liraglu ...

The conditions of series [2]: cited from earlier work; for Brain influx within 1 h of iv injection (detection): mouse iv, radiolabeled IRA, earlier study.
Text: The unidirectional blood-to-brain influx rate (Ki) calculated from Figure 2c for all four IRAs tested is graphed with previously calculated Ki’s for other IRAs[50] in Figure 3 by rank.
Series [3] can be described thus: Long-term (6 h) measurement of brain uptake. Format: in vivo, male CD-1 mice. The note with it: mouse iv 125I-IRA, 6 h circulation; corrected for vascular space and degradation; estimated. As to the method:
Substances that are enzymatically stable in blood and have slow clearance from the circulation can slowly enter the brain using the extracellular pathways.[63],[64] […] Albumin enters the brain by extracellular pathways,[70] and so we used albumin in two ways: we used ^99mTc-Alb circulating for 10 min to measure vascular space and ^99mTc-Alb circulating for 6 h to measure brain uptake by extracellular pathways. This is similar to the time-differential methodology developed by Poduslo and Curran to measure a substance’s vascular space and its uptake rate.[71] Following anesthetization, the jugular vein and right carotid artery were exposed. Mice were given an iv injection of 0.1% BSA-LR containing 1 × 10^6 cpm of ^125I-IRA or 5 × 10^5 cpm of ^99mTc-Alb, which circulated for 6 h. Mice receiving only the ^125I-IRA were given an injection of 5 × 10^5 cpm of ^99mTc-Alb 10 min prior to the end of the 6 h circulation time to act as a vascular marker. A separate set of mice received an iv injection of both 1 × 10^6 cpm of ^125I-IRA and 5 × 10^5 cpm of ^99mTc-Alb that circulated for 10 min. Following the 10 min or 6 h circulation time points, blood and brain were collected as described above. Thus, we had B/S ratios for ^99mTc-Alb measuring vascular space (10 min circulation time) and B/S ratios for ^99mTc-Alb measuring vascular space plus uptake by the extracellular pathways (6 h circulation time) which could be compared to the B/S ratios for the ^125I-IRAs after 10 min and 6 h of circulation.
Immediately after counting the radioactivity, the blood and brains from the 10 min and 6 h time points were processed as described in Section 2.5 for in vivo stability. For further comparison, data from the 1 h time point were taken from the original pharmacokinetic uptake study. The ^125I-IRA brain % acid precipitation (%AP) was divided by the ^125I-IRA serum %AP at each time point to calculate the %AP B/S ratio. This value was multiplied by the B/S ratio for each ^125I-IRA to correct for degradation over the 10 min, 1 h, or 6 h time periods. […]

For series [4] the following is noted: reported; cited from earlier work.
The conditions of series [5]: rat, 1 hour after iv, LC-MS/MS, mean, cited from earlier work. The method, then:
This may reflect in part the sensitivity of our method using small amounts of radiolabeled peptides given the results of a recent study on semaglutide. That study used a novel liquid chromatography-tandem mass spectroscopy (LC-MS/MS) method to measure brain levels of semaglutide in adult male Sprague-Dawley rats injected iv 1 hour earlier with about […] of the unlabeled drug per animal. Detectable ...

Turning to “lixisenatide: FDA-approved IRA tested in the earlier study (ref 50)”, the “Percent reaching the brain that was in parenchyma vs. capillaries” value in series [1] was 66.8%. Further, in series [2] (mouse, in vivo, iv), the “Blood to Brain Unidirectional Influx Rate (Ki)” value is 0.3271 µL/g/min.
Turning to `CC[C@H](C)[C@H](NC(=O)[C@H](Cc1ccccc1)NC(=O)[C@H](CCC(=O)O)NC(=O)[C@H](CCCCNC(=O)COCCOCCNC(=O)COCCOCCNC(=O)CC[C@H](NC(=O)CCCCCCCCCCCCCCCCC(=O)O)C(=O)O)NC(=O)[C@H](C)NC(=O)[C@H](C)NC(=O)[C@H](CCC(N)=O)NC(=O)CNC(=O)[C@H](CCC(=O)O)NC(=O)[C@H](CC(C)C)NC(=O)[C@H](Cc1ccc(O)cc1)NC(=O)[C@H](CO)NC(=O)[C@H](CO)NC(=O)[C@@H](NC(=O)[C@H](CC(=O)O)NC(=O)[C@H](CO)NC(=O)[C@@H](NC(=O)[C@H](Cc1ccccc1)NC(=O)[C@@H](NC(=O)CNC(=O)[C@H](CCC(=O)O)NC(=O)C(C)(C)NC(=O)[C@@H](N)Cc1cnc[nH]1)[C@@H](C)O)[C@@H](C)O)C(C)C)C(=O)N[C@@H](C)C(=O)N[C@@H](Cc1c[nH]c2ccccc12)C(=O)N[C@@H](CC(C)C)C(=O)N[C@H](C(=O)N[C@@H](CCCNC(=N)N)C(=O)NCC(=O)N[C@@H](CCCNC(=N)N)C(=O)NCC(=O)O)C(C)C` [Semaglutide], in series [3], the “Amount present in brain at 6 h (AP corrected delta %Inj/g)” value is on record as 0.022 %Inj/g. Further, the “half-lives in human serum” value in series [4] is listed as ~ 160 h. The “semaglutide level in the cerebrum” value in series [5] (cerebrum = cerebral cortex + striatum + amygdala + olfactory bulb) is given as 7.7 ng/g. In series [5], the “semaglutide level in the cerebellum” value is 12.6 ng/g and the “semaglutide level in the hypothalamus” value was 27 ng/g. Moreover, the “semaglutide level in the brain as a whole” value in series [5] (no vascular wash-out) is reported as 12.0 ng/g. The “Brain influx within 1 h of iv injection (detection)” value in series [2] is on record as “did not detect brain influx”.
In the case of `CCCCCCCCCCCCCCCC(=O)N[C@@H](CCC(=O)NCCCC[C@H](NC(=O)[C@H](C)NC(=O)[C@H](C)NC(=O)[C@H](CCC(N)=O)NC(=O)CNC(=O)[C@H](CCC(=O)O)NC(=O)[C@H](CC(C)C)NC(=O)[C@H](Cc1ccc(O)cc1)NC(=O)[C@H](CO)NC(=O)[C@H](CO)NC(=O)[C@@H](NC(=O)[C@H](CC(=O)O)NC(=O)[C@H](CO)NC(=O)[C@@H](NC(=O)[C@H](Cc1ccccc1)NC(=O)[C@@H](NC(=O)CNC(=O)[C@H](CCC(=O)O)NC(=O)[C@H](C)NC(=O)[C@@H](N)Cc1cnc[nH]1)[C@@H](C)O)[C@@H](C)O)C(C)C)C(=O)N[C@@H](CCC(=O)O)C(=O)N[C@@H](Cc1ccccc1)C(=O)N[C@H](C(=O)N[C@@H](C)C(=O)N[C@@H](Cc1c[nH]c2ccccc12)C(=O)N[C@@H](CC(C)C)C(=O)N[C@H](C(=O)N[C@@H](CCCNC(=N)N)C(=O)NCC(=O)N[C@@H](CCCNC(=N)N)C(=O)NCC(=O)O)C(C)C)[C@@H](C)CC)C(=O)O` [Liraglutide], the “Amount present in brain at 6 h (AP corrected delta %Inj/g)” value in series [3] is 0.03 %Inj/g. The “Percent reaching the brain that was in parenchyma vs. capillaries” value in series [1] is 28.7%. Moreover, the “half-lives in human serum” value in series [4] is 11 to 13 h. Also, the “Brain influx within 1 h of iv injection (detection)” value in series [2] was “did not detect brain influx”.
